Data: patent US9238056B2, “Cyclic peptide and conjugate thereof for binding to keratinocytes” (LEO PHARMA A/S, priority 2011, dated 2016)
Bridge positions count the residues as written; N and C are the ends. Ends that are not written are not given here. * marks the point of attachment. Acetylthioacetyl = CC(=O)SCC(=O)*

Legend:
[1] = tested on: HaCat cells; conditions: cited from earlier work
[2] = tested on: Adult human epidermal keratinocytes (HEKa); assay: Cathelicidin (CAMP) expression by qPCR in keratinocytes incubated with calcipotriol-loaded liposomes; format: cell-based; conditions: 10^−7 M calcipotriol, 1 h at 37° C. then 24 h, versus placebo RKK12-conjugated liposomes, FIG. 6
Method: Adult human epidermal keratinocytes (HEKa) were obtained from Cascade Biologics (Portland, Oreg., USA) and cultured in EpiLife Medium (Cascade Biologics) containing human keratinocyte growth supplement and gentamicin/Amphotericin B (Cascade Biologics) at 37° C. in a humidified atmosphere with 5% CO2. For the cell interaction assay, 2×10^5 exponentially growing keratinocytes were seeded one day prior to treatment. On the following day (at 80% confluency), the medium was renewed, and the cell culture media was supplied with 15 μl of liposome suspension for a final concentration of 10^−7 M calcipotriol in the well, 15 μl placebo liposomal suspension, or calcipotriol in 0.1% DMSO solution for a final concentration of 10^−7 M and incubated 1 h at 37° C. The liposomes were conjugated with either the RKK12-peptide or the AKK12-peptide. After 1 h, the cells were washed three times with PBS supplemented with 1% BSA, and 1.5 ml media was added followed by incubation for 24 h at 37° C. Subsequently, the medium was removed, and mRNA was extracted using the RNeasy kit from Quiagen (Hilden, Germany). […] The relative change in the expression of CAMP was quantified using the comparative CT method (2^−ΔΔCt)(K. J. Livak and T. D. Schmittgen, Methods 25, 2001, pp. 402-408).

[3] = target: T1, integrin α2β1 receptor (Homo sapiens, UniProt P17301); conditions: cyclic peptide: in the presence of 2 mM MgCl2; cited from earlier work
T1 sequence (P17301 153-368 limits assumed): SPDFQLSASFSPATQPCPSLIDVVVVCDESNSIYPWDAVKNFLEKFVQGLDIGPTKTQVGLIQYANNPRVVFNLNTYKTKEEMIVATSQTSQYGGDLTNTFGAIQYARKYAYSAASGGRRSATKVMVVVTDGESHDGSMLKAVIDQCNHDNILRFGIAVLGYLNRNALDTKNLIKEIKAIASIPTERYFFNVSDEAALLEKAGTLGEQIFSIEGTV

[4] = tested on: A431 cells; assay: Cellular internalization of DiD-labeled peptide-conjugated liposomes at 37° C. (flow cytometry); format: cell-based, human; conditions: 1 hour at 37° C., FIG. 4
Method: (§1) Human epidermal carcinoma cells A431 were subcultured in Dulbecco's modified Eagle's medium (DMEM) containing 3.7 g/l sodium bicarbonate and 4.5 g/l glucose, supplemented with antimicrobial agents, 2 mM L-glutamine and 7.5% (v/v) fetal bovine serum, at 37° C. in a humidified atmosphere containing 5% CO2. Nearly confluent mono-layers of A431 cells were washed with PBS and cells were detached using 1 mM tris-EDTA in PBS. The cells were subsequently suspended in cold PBS supplemented with 1.26 mM CaCl2 and 0.81 mM MgSO4 at 4° C. The cells were counted after centrifugation and 10^5 cells in 100 μl media were incubated with 100 μl liposomes diluted in PBS supplemented with 1.26 mM CaCl and 0.81 mM MgSO4, different concentrations of DiD-labeled liposomes (10-200 nmol total lipid), RKK12-conjugated liposomes (RKK12-liposomes) or AKK12-coupled liposomes (AKK12-liposomes) for 1 h at 4° C.
(§2) In the cellular internalization of liposomes experiment, similar different concentrations of DiD-labeled liposomes (10-200 nmol total lipid) RKK12-liposomes were incubated for 1 hour at 37° C. […] At the end of the incubation period, cells were washed three times in the 5% BSA supplemented PBS-buffer at 4° C., and resuspended in 200 μl PBS supplied with 5% BSA after which they were analyzed on a FACScalibur flow cytometer (Becton-Dickinson). […]

[5] = tested on: A431 cells; assay: Binding of DiD-labeled peptide-conjugated liposomes to A431 cells at 4° C. (flow cytometry); format: cell-based, human
Method: as §1, §2

[6] = target: T2, integrin α2β1 receptor on the surface of A431 human epidermal carcinoma cells (human, UniProt P17301 30-1181; P05556 21-798); assay: flow cytometry, DiD-labeled peptide-conjugated liposomes on A431 cells at 4° C.
T2 construct: whole, on cells; Endogenous receptor on A431 cells; also called human integrin α2β1 receptor
T2 sequence (P17301 30-1181, chain 1 of 2): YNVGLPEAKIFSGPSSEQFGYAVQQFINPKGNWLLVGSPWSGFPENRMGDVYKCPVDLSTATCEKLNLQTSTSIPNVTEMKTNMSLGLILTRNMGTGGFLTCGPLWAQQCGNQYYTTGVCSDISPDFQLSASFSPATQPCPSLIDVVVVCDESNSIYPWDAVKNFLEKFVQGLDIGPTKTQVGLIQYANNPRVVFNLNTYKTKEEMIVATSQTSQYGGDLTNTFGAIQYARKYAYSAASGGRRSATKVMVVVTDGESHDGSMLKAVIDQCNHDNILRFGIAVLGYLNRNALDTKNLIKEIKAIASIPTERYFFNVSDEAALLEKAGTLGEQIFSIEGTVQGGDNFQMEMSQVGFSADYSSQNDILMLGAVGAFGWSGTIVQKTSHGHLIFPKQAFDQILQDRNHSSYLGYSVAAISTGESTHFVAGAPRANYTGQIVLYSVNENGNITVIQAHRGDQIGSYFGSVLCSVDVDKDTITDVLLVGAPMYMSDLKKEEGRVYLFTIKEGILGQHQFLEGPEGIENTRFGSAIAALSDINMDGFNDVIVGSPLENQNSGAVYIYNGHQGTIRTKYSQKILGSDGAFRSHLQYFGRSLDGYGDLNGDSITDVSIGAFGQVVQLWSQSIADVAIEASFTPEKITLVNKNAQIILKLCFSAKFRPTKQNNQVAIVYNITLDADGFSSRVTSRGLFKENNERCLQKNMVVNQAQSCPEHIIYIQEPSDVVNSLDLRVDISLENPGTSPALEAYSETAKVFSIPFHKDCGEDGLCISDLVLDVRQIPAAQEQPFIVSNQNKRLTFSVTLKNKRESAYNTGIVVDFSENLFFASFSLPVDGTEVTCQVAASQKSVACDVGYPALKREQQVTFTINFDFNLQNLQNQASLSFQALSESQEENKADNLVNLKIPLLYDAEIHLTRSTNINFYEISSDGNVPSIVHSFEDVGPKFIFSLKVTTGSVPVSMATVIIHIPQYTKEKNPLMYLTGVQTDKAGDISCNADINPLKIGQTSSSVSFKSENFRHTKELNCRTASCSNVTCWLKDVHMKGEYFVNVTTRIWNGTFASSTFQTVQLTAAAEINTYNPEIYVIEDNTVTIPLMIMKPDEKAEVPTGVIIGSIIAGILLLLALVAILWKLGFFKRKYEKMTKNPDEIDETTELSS
T2 sequence (P05556 21-798, chain 2 of 2): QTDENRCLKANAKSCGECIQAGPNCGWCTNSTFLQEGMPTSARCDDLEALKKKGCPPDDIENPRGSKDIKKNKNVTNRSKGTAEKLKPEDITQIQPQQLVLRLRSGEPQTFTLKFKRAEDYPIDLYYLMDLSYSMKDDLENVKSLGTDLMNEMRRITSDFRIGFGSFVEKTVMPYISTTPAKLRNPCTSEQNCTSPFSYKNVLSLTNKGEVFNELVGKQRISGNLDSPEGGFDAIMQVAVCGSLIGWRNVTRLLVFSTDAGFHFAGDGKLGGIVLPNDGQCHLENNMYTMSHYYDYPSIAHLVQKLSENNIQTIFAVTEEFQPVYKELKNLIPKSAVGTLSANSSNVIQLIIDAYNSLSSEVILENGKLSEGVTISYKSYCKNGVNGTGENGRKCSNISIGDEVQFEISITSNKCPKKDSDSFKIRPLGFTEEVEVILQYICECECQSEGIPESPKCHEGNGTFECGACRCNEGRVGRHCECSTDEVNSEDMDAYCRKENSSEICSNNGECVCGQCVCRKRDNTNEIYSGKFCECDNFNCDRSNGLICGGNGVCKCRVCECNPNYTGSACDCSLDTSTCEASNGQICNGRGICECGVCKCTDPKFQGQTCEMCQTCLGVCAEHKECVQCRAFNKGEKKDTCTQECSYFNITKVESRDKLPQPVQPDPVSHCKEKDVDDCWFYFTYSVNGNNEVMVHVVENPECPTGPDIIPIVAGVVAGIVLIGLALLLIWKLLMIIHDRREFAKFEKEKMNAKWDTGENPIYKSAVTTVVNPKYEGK

In the case of `C=C1/C(=C\C=C2/CCC[C@]3(C)[C@@H]([C@H](C)/C=C/[C@@H](O)C4CC4)CC[C@@H]23)C[C@@H](O)C[C@@H]1O` [calcipotriol], the levels of cathelicidin [1] is given as “Increased levels”.

For “AKK12-conjugated liposomes: calcipotriol-loaded liposomes conjugated with the control peptide AKK12 (cyclo(KHDNRQSK(Acetylthioacetyl)STAK); not fully specified)”, the “expression of cathelicidin (CAMP) normalized to GAPDH” value [2] was “no significant difference between the formulations”.

In the case of “C^241TRKKHDNAQ^249C: nine amino acid long cyclic peptide with RKK motif derived from jararhagin (Ivaska et al.) (CTRKKHDNAQC; disulfide 1-11)”, the “inhibition of collagen I interaction with the integrin α2β1 receptor” value [3] is listed as “inhibit the interaction”.

With “RKK12-liposomes: DiD-labeled liposomes (DSPC, PEG2000-DSPE, Mal-PEG2000-DSPE, cholesterol) conjugated with RKK12 peptide (cyclo(KHDNAQSK(Acetylthioacetyl)STRK); also: conjugated to DiD-labeled liposomes)” the “internalization (cellular uptake) of liposomes” value [4] was “highest”, the “association of liposomes at low Mg2+ concentrations, versus AKK12-conjugated liposomes” value ([5]; 4° C., PBS not supplied with CaCl2 or MgSO4, FIG. 5) was “only slightly higher” and the “fluorescence of cells (association of liposomes)” value ([5]; 1 h at 4° C., PBS with 1.26 mM CaCl2 and 0.81 mM MgSO4, 10-200 nmol total lipid, FIG. 3) was “significantly more fluorescent”.

B1: AKK12 head-to-tail cyclized control peptide H-KHDNRQS-(SATA)KSTAK-OH, conjugated to DiD-labeled liposomes (peptide)
peptide: cyclo(KHDNRQSKSTAK)
modifications: not fully specified (residue 8)
notes: Control peptide with similar charge as RKK12 but without the RKK motif (Arg and Ala exchanged); tested only as a liposome conjugate; also called AKK12-peptide; AKK12-liposomes
B1: binds [6].

B2: RKK12 head-to-tail cyclized targeting peptide H-KHDNAQS-(SATA)KSTRK-OH, conjugated to DiD-labeled liposomes (peptide)
peptide: cyclo(KHDNAQSKSTRK)
modifications: not fully specified (residue 8)
notes: Synthetic cyclic peptide; tested only as a conjugate on the surface of DiD-labeled PEGylated liposomes, so many copies per particle; also called RKK12-peptide; RKK-12 peptide
B2: binds [6].
